# Measured values taken from PMC10508841, “Two jasmonic acid carboxyl methyltransferases in Gossypium hirsutum involved in MeJA biosynthesis may contribute to plant defense” (Frontiers in Plant Science, 2023).
# Experiments:
# GhJMT2 = molecular target: T1, GhJMT2 (Gossypium hirsutum, UniProt A0A2K9REX3); assay: GC-MS product detection, recombinant E. coli supernatant; format: biochemical; conditions: SAM 1 uL of 100 mM, KCl, 25 °C, 30 min; empty vector control; product MeJA
# T1 construct: gene JMT2; cloning primers encode MEVVQVL... ...PMDVFLF (derived)
# T1 sequence (A0A2K9REX3 1-372): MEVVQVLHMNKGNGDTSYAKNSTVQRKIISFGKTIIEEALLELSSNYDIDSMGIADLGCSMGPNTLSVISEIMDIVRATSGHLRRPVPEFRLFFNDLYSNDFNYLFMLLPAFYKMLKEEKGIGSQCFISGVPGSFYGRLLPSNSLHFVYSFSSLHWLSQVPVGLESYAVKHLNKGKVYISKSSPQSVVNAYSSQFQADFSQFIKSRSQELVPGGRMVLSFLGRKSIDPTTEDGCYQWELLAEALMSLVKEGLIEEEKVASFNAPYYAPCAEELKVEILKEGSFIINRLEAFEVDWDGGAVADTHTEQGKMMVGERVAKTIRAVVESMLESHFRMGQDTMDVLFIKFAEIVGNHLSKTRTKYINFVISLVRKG
# GhJMT1 = molecular target: T2, GhJMT1 (Gossypium hirsutum, UniProt A0ACM8RG93); assay: as above; format: biochemical; conditions: SAM 1 uL of 100 mM, KCl, 25 °C, 30 min; empty vector control; product MeJA
# T2 construct: gene JMT1; cloning primers encode MQVLHMN... ...ALTKKW (derived)
# T2 sequence (A0ACM8RG93 1-371): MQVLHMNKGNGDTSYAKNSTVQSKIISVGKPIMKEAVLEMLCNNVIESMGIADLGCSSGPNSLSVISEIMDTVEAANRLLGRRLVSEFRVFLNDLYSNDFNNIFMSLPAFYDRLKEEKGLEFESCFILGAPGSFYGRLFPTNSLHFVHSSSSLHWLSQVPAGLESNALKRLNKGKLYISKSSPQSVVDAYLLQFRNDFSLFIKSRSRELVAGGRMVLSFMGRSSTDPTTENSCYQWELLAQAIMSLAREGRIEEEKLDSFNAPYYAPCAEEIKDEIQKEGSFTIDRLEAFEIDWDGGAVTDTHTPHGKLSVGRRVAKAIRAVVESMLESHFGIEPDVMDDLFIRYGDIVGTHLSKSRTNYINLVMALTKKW
smiles,measurement,setting,value
CC/C=C\C[C@H]1C(=O)CC[C@@H]1CC(=O)O [jasmonic acid],"GC-MS product detection, recombinant E. coli supernatant",GhJMT2,recombinant GhJMT1 and GhJMT2 were both responsible for the conversion of JA to MeJA
same,"GC-MS product detection, recombinant E. coli supernatant",GhJMT1,recombinant GhJMT1 and GhJMT2 were both responsible for the conversion of JA to MeJA
